Assays:
Format in all cases: in vivo
[1] = test system: blackgrass (Alopecurus myosuroides); test: Test A postemergence, visual plant response rating; conditions: for Blackgrass plant response rating (0 to 100 scale): 500 g ai/ha, postemergence, 0 is no effect, 100 is complete control; for Blackgrass plant response rating: Postemergence, 125 g ai/ha, 0 to 100 scale (0 no effect, 100 complete control)
Procedure, shortened: (§1)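 Ratings 0–100 (100 = complete control), visual, vs untreated controls at ~10 days. Application pre- or postemergence; solvent mixture with surfactant; loam/sand medium.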

[2] = test system: ragweed (common ragweed, Ambrosia elatior); test: Test A postemergence, visual plant response rating; conditions: for Ragweed plant response rating (0 to 100 scale): 500 g ai/ha, postemergence, 0 is no effect, 100 is complete control; for Ragweed plant response rating: Postemergence, 125 g ai/ha, 0 to 100 scale (0 no effect, 100 complete control)
Procedure, shortened: as §1

[3] = test system: foxtail, green (green foxtail, Setaria viridis); test: Test A postemergence, visual plant response rating; conditions: for Foxtail, Green plant response rating (0 to 100 scale): 500 g ai/ha, postemergence, 0 is no effect, 100 is complete control; for Foxtail, Green plant response rating: Postemergence, 125 g ai/ha, 0 to 100 scale (0 no effect, 100 complete control)
Procedure, shortened: as §1

[4] = test system: galium (catchweed bedstraw, Galium aparine); test: Test A postemergence, visual plant response rating; conditions: for Galium plant response rating (0 to 100 scale): 500 g ai/ha, postemergence, 0 is no effect, 100 is complete control; for Galium plant response rating: Postemergence, 125 g ai/ha, 0 to 100 scale (0 no effect, 100 complete control)
Procedure, shortened: as §1

corn (Zea mays) = test: Test A postemergence, visual plant response rating; conditions: for Corn plant response rating (0 to 100 scale): 500 g ai/ha, postemergence, 0 is no effect, 100 is complete control; for Corn plant response rating: Postemergence, 125 g ai/ha, 0 to 100 scale (0 no effect, 100 complete control)
Procedure, shortened: as §1

[5] = test system: barnyardgrass (Echinochloa crus-galli); test: Test A postemergence, visual plant response rating; conditions: for Barnyardgrass plant response rating (0 to 100 scale): 500 g ai/ha, postemergence, 0 is no effect, 100 is complete control; for Barnyardgrass plant response rating: Postemergence, 125 g ai/ha, 0 to 100 scale (0 no effect, 100 complete control)
Procedure, shortened: as §1

[6] = test system: wheat (Triticum aestivum); test: Test A postemergence, visual plant response rating; conditions: for Wheat plant response rating (0 to 100 scale): 500 g ai/ha, postemergence, 0 is no effect, 100 is complete control; for Wheat plant response rating: Postemergence, 125 g ai/ha, 0 to 100 scale (0 no effect, 100 complete control)
Procedure, shortened: as §1

[7] = test system: pigweed (Amaranthus retroflexus); test: Test A postemergence, visual plant response rating; conditions: for Pigweed plant response rating (0 to 100 scale): 500 g ai/ha, postemergence, 0 is no effect, 100 is complete control; for Pigweed plant response rating: Postemergence, 125 g ai/ha, 0 to 100 scale (0 no effect, 100 complete control)
Procedure, shortened: as §1

[8] = test system: Italian ryegrass (Lolium multiflorum); test: Test A postemergence, visual plant response rating; conditions: for Ryegrass, Italian plant response rating (0 to 100 scale): 500 g ai/ha, postemergence, 0 is no effect, 100 is complete control; for Ryegrass, Italian plant response rating: Postemergence, 125 g ai/ha, 0 to 100 scale (0 no effect, 100 complete control)
Procedure, shortened: as §1

kochia (Kochia scoparia) [9] = test: Test A postemergence, visual plant response rating; conditions: for Kochia plant response rating (0 to 100 scale): 500 g ai/ha, postemergence, 0 is no effect, 100 is complete control; for Kochia plant response rating: Postemergence, 125 g ai/ha, 0 to 100 scale (0 no effect, 100 complete control)
Procedure, shortened: as §1

[10] = test system: ducksalad (Heteranhera limosa); test: Test B flooded paddy test, visual plant response rating; conditions: 250 g ai/ha, Flood, applied to paddy water, 2-leaf stage, evaluated after 13 to 15 days
Procedure, shortened: (§2)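 Test pots are flooded 3 cm above the soil at treatment, and the test substance is introduced into this standing water. After keeping the flood level and growing plants, treated at the 2-leaf stage, for 13 to 15 days under glass, injury is assessed visually versus controls.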

rice (Oryza sativa) = test: as above; conditions: 250 g ai/ha, Flood, applied to paddy water, 2-leaf stage, evaluated after 13 to 15 days
Procedure, shortened: as §2

[11] = test system: barnyardgrass (Echinochloa crus-galli); test: as above; conditions: 250 g ai/ha, Flood, applied to paddy water, 2-leaf stage, evaluated after 13 to 15 days
Procedure, shortened: as §2

[12] = test system: sedge, umbrella (small-flower umbrella sedge, Cyperus difformis); test: as above; conditions: 250 g ai/ha, Flood, applied to paddy water, 2-leaf stage, evaluated after 13 to 15 days
Procedure, shortened: as §2

[13] = test system: ragweed (common ragweed, Ambrosia elatior); test: Test A preemergence, visual plant response rating; conditions: approx. 10 days
Procedure, shortened: as §1

[14] = test system: foxtail, green (green foxtail, Setaria viridis); test: Test A preemergence, visual plant response rating; conditions: approx. 10 days
Procedure, shortened: as §1

[15] = test system: barnyardgrass (Echinochloa crus-galli); test: Test A preemergence, visual plant response rating; conditions: approx. 10 days
Procedure, shortened: as §1

[16] = test system: pigweed (Amaranthus retroflexus); test: Test A preemergence, visual plant response rating; conditions: approx. 10 days
Procedure, shortened: as §1

[17] = test system: Italian ryegrass (Lolium multiflorum); test: Test A preemergence, visual plant response rating; conditions: approx. 10 days
Procedure, shortened: as §1

kochia (Kochia scoparia) [18] = test: Test A preemergence, visual plant response rating; conditions: approx. 10 days
Procedure, shortened: as §1

CCO/N=C(\c1cccc(C)c1C)c1c(O)c(C)nn(C)c1=O [Compound 25]
Blackgrass plant response rating (0 to 100 scale) [1]: 40 | Blackgrass plant response rating [1]: 0 | Ragweed plant response rating (0 to 100 scale) [2]: 40 | Ragweed plant response rating [2]: 20 | Foxtail, Green plant response rating (0 to 100 scale) [3]: 10 | Foxtail, Green plant response rating [3]: 0 | Galium plant response rating (0 to 100 scale) [4]: 20 | Galium plant response rating [4]: 20 | Corn plant response rating (0 to 100 scale) (corn (Zea mays)): 0 | Corn plant response rating (corn (Zea mays)): 0 | Barnyardgrass plant response rating (0 to 100 scale) [5]: 30 | Barnyardgrass plant response rating [5]: 0 | Wheat plant response rating (0 to 100 scale) [6]: 0 | Wheat plant response rating [6]: 0 | Pigweed plant response rating (0 to 100 scale) [7]: 50 | Pigweed plant response rating [7]: 40 | Ryegrass, Italian plant response rating (0 to 100 scale) [8]: 40 | Ryegrass, Italian plant response rating [8]: 10 | Kochia plant response rating (0 to 100 scale) (kochia (Kochia scoparia) [9]): 10 | Kochia plant response rating (kochia (Kochia scoparia) [9]): 0 | Plant response rating, Ducksalad (0 to 100 scale, 0 is no effect, 100 is complete control) [10]: 0 | Plant response rating, Rice (0 to 100 scale, 0 is no effect, 100 is complete control) (rice (Oryza sativa)): 0 | Plant response rating, Barnyardgrass (0 to 100 scale, 0 is no effect, 100 is complete control) [11]: 0 | Plant response rating, Sedge, Umbrella (0 to 100 scale, 0 is no effect, 100 is complete control) [12]: 0 | Ragweed plant response rating (0 to 100 scale) ([13]; 125 g ai/ha Preemergence): 30 | Ragweed plant response rating (0 to 100 scale) ([13]; 500 g ai/ha Preemergence): 90 | Foxtail, Green plant response rating (0 to 100 scale) ([14]; 125 g ai/ha Preemergence): 0 | Foxtail, Green plant response rating (0 to 100 scale) ([14]; 500 g ai/ha Preemergence): 60 | Barnyardgrass plant response rating (0 to 100 scale) ([15]; 125 g ai/ha Preemergence): 0 | Barnyardgrass plant response rating (0 to 100 scale) ([15]; 500 g ai/ha Preemergence): 0 | Pigweed plant response rating (0 to 100 scale) ([16]; 125 g ai/ha Preemergence): 90 | Pigweed plant response rating (0 to 100 scale) ([16]; 500 g ai/ha Preemergence): 40 | Ryegrass, Italian plant response rating (0 to 100 scale) ([17]; 125 g ai/ha Preemergence): 10 | Ryegrass, Italian plant response rating (0 to 100 scale) ([17]; 500 g ai/ha Preemergence): 30 | Kochia plant response rating (0 to 100 scale) (kochia (Kochia scoparia) [18]; 125 g ai/ha Preemergence): 0 | Kochia plant response rating (0 to 100 scale) (kochia (Kochia scoparia) [18]; 500 g ai/ha Preemergence): 0

CO/N=C(/c1cccc(C)c1)c1c(O)c(C2CC2)nn(C)c1=O [Compound 28]
Blackgrass plant response rating (0 to 100 scale) [1]: 40 | Blackgrass plant response rating [1]: 0 | Ragweed plant response rating (0 to 100 scale) [2]: 40 | Ragweed plant response rating [2]: 0 | Foxtail, Green plant response rating (0 to 100 scale) [3]: 10 | Foxtail, Green plant response rating [3]: 0 | Galium plant response rating (0 to 100 scale) [4]: 60 | Galium plant response rating [4]: 20 | Corn plant response rating (0 to 100 scale) (corn (Zea mays)): 0 | Corn plant response rating (corn (Zea mays)): 0 | Barnyardgrass plant response rating (0 to 100 scale) [5]: 30 | Barnyardgrass plant response rating [5]: 0 | Wheat plant response rating (0 to 100 scale) [6]: 0 | Wheat plant response rating [6]: 0 | Pigweed plant response rating (0 to 100 scale) [7]: 40 | Pigweed plant response rating [7]: 30 | Ryegrass, Italian plant response rating (0 to 100 scale) [8]: 10 | Ryegrass, Italian plant response rating [8]: 0 | Kochia plant response rating (0 to 100 scale) (kochia (Kochia scoparia) [9]): 0 | Kochia plant response rating (kochia (Kochia scoparia) [9]): 0 | Plant response rating, Ducksalad (0 to 100 scale, 0 is no effect, 100 is complete control) [10]: 0 | Plant response rating, Rice (0 to 100 scale, 0 is no effect, 100 is complete control) (rice (Oryza sativa)): 0 | Plant response rating, Barnyardgrass (0 to 100 scale, 0 is no effect, 100 is complete control) [11]: 0 | Plant response rating, Sedge, Umbrella (0 to 100 scale, 0 is no effect, 100 is complete control) [12]: 0 | Ragweed plant response rating (0 to 100 scale) ([13]; 125 g ai/ha Preemergence): 0 | Ragweed plant response rating (0 to 100 scale) ([13]; 500 g ai/ha Preemergence): 10 | Foxtail, Green plant response rating (0 to 100 scale) ([14]; 125 g ai/ha Preemergence): 0 | Foxtail, Green plant response rating (0 to 100 scale) ([14]; 500 g ai/ha Preemergence): 30 | Barnyardgrass plant response rating (0 to 100 scale) ([15]; 125 g ai/ha Preemergence): 0 | Barnyardgrass plant response rating (0 to 100 scale) ([15]; 500 g ai/ha Preemergence): 0 | Pigweed plant response rating (0 to 100 scale) ([16]; 125 g ai/ha Preemergence): 0 | Pigweed plant response rating (0 to 100 scale) ([16]; 500 g ai/ha Preemergence): 10 | Ryegrass, Italian plant response rating (0 to 100 scale) ([17]; 125 g ai/ha Preemergence): 0 | Ryegrass, Italian plant response rating (0 to 100 scale) ([17]; 500 g ai/ha Preemergence): 0 | Kochia plant response rating (0 to 100 scale) (kochia (Kochia scoparia) [18]; 125 g ai/ha Preemergence): 0 | Kochia plant response rating (0 to 100 scale) (kochia (Kochia scoparia) [18]; 500 g ai/ha Preemergence): 0

CO/N=C(/c1c(O)c(C)nn(C)c1=O)c1cccc2ccccc12 [Compound 31]
Blackgrass plant response rating (0 to 100 scale) [1]: 90 | Blackgrass plant response rating [1]: 80 | Ragweed plant response rating (0 to 100 scale) [2]: 90 | Ragweed plant response rating [2]: 70 | Foxtail, Green plant response rating (0 to 100 scale) [3]: 80 | Foxtail, Green plant response rating [3]: 50 | Galium plant response rating (0 to 100 scale) [4]: 90 | Galium plant response rating [4]: 90 | Corn plant response rating (0 to 100 scale) (corn (Zea mays)): 50 | Corn plant response rating (corn (Zea mays)): 20 | Barnyardgrass plant response rating (0 to 100 scale) [5]: 90 | Barnyardgrass plant response rating [5]: 40 | Wheat plant response rating (0 to 100 scale) [6]: 20 | Wheat plant response rating [6]: 0 | Pigweed plant response rating (0 to 100 scale) [7]: 90 | Pigweed plant response rating [7]: 60 | Ryegrass, Italian plant response rating (0 to 100 scale) [8]: 90 | Ryegrass, Italian plant response rating [8]: 60 | Kochia plant response rating (0 to 100 scale) (kochia (Kochia scoparia) [9]): 80 | Kochia plant response rating (kochia (Kochia scoparia) [9]): 70 | Plant response rating, Ducksalad (0 to 100 scale, 0 is no effect, 100 is complete control) [10]: 0 | Plant response rating, Rice (0 to 100 scale, 0 is no effect, 100 is complete control) (rice (Oryza sativa)): 40 | Plant response rating, Barnyardgrass (0 to 100 scale, 0 is no effect, 100 is complete control) [11]: 25 | Plant response rating, Sedge, Umbrella (0 to 100 scale, 0 is no effect, 100 is complete control) [12]: 0 | Ragweed plant response rating (0 to 100 scale) ([13]; 125 g ai/ha Preemergence): 30 | Ragweed plant response rating (0 to 100 scale) ([13]; 500 g ai/ha Preemergence): 80 | Foxtail, Green plant response rating (0 to 100 scale) ([14]; 125 g ai/ha Preemergence): 30 | Foxtail, Green plant response rating (0 to 100 scale) ([14]; 500 g ai/ha Preemergence): 90 | Barnyardgrass plant response rating (0 to 100 scale) ([15]; 125 g ai/ha Preemergence): 10 | Barnyardgrass plant response rating (0 to 100 scale) ([15]; 500 g ai/ha Preemergence): 70 | Pigweed plant response rating (0 to 100 scale) ([16]; 125 g ai/ha Preemergence): 40 | Pigweed plant response rating (0 to 100 scale) ([16]; 500 g ai/ha Preemergence): 90 | Ryegrass, Italian plant response rating (0 to 100 scale) ([17]; 125 g ai/ha Preemergence): 40 | Ryegrass, Italian plant response rating (0 to 100 scale) ([17]; 500 g ai/ha Preemergence): 70 | Kochia plant response rating (0 to 100 scale) (kochia (Kochia scoparia) [18]; 125 g ai/ha Preemergence): 10 | Kochia plant response rating (0 to 100 scale) (kochia (Kochia scoparia) [18]; 500 g ai/ha Preemergence): 90
